Results as given in ChEMBL document CHEMBL3301361, “Experimental in vitro DMPK and physicochemical data on a set of publicly disclosed compounds”.
Converted amounts (≈) assume the structure as drawn. Residues, ends and D or L forms follow the SMILES beside them.

What was measured:
in vitro [1] = conditions: SD, HW or BN, rat, plasma
in vitro [2] = conditions: human, plasma
physchem [3] = conditions: octan-1-ol/water
in vitro [4] = conditions: Beagle, dog, plasma
in vitro [5] = conditions: human
in vitro [6] = conditions: hepatocytes
physchem [7] = conditions: pH 7.4 buffer

Structure (SMILES) | fraction unbound at 5 h (in vitro [1]) | fraction unbound at 5 h (in vitro [2]; PPB) | logD (physchem [3]; pH 7.4, LogD7.4) | fraction unbound at 5 h (in vitro [4]) | microsomal CLint (in vitro [5]; microsomes) [µL/min/mg] | hepatocyte CLint (in vitro [6]) [µL/min/1e6 cells] | microsomal CLint (in vitro [5]; liver microsomes) [µL/min/mg] | solubility thermodynamic (physchem [7]) [µM] | fraction unbound at 5 h (in vitro [2]) | logD (physchem [3]; pH 7.4)
Cc1cc(Nc2nc(O[C@@H](C)c3ncc(F)cn3)ncc2Cl)[nH]n1 | 0.339 | 0.249 | 1.82 | 0.489 |  |  |  |  |  | 
N#Cc1cccc(-c2cc(Cl)ccc2OCC(=O)O)c1 | 0.0343 | 0.0075 |  | 0.0234 | < 3 |  |  |  |  | 
CC(C)(C)OC(=O)NC[C@H]1CC[C@H](CNC(=O)c2cc(N3CCC(CCO)CC3)nc3ccccc23)CC1 | 0.0099 | 0.007 |  | 0.0084 |  |  |  |  |  | 
Cc1ccc(S(=O)(=O)Nc2c(C(=O)N[C@@H](C)C(C)(C)C)c(C)nn2C2CCOCC2)cc1 | 0.166 | 0.208 |  | 0.529 |  | < 3 | 7 |  |  | 
O=c1cc(N2CCOCC2)nc2n(Cc3cccc4ccccc34)ccn12 | 0.0477 | 0.0307 | 3.3 | 0.0676 |  |  |  |  |  | 
COc1cc2c(cc1-c1c(C)noc1C)ncc1[nH]c(=O)n([C@H](C)c3ccccn3)c12 | 0.0374 | 0.0234 | 3.15 | 0.105 | 7.59 |  |  |  |  | 
N[C@H]1CCN(c2c(Cl)cccc2/C=C2\SC(=O)NC2=O)C1 | 0.0467 | 0.0234 | 1.89 | 0.0581 |  |  |  |  |  | 
CCOc1noc2cc(OCCC3CCN(c4ccc(C)nn4)CC3)ccc12 | 0.0015 | 0.0014 |  | 0.0031 |  |  |  |  |  | 
Cc1ccc(NC(=O)c2cccc(C(C)(C)C#N)c2)cc1Nc1ccc2ncn(C)c(=O)c2c1 | 0.5 | 0.0039 |  | 0.004 |  |  |  |  |  | 
CC(C)Oc1cc(-n2cnc3ccc(N[C@@H](CO)c4ccc(F)cn4)nc32)n[nH]1 | 0.186 | 0.0818 | 2.79 | 0.304 |  |  |  |  |  | 
CC(C)Oc1cc(Nc2nc3c(cc2F)ncn3[C@@H](CO)c2ccc(F)cn2)n[nH]1 | 0.119 | 0.051 | 2.97 | 0.249 |  |  |  |  |  | 
Cc1c(OC2CCN(CC3CCN([C@@](C)(Cc4ccc(F)cc4)C(=O)O)CC3)CC2)ccc(Cl)c1Cl | 0.0752 |  |  | 0.0568 |  | < 3 | < 3 |  |  | 
O=C(O)[C@H](Cc1ccc(F)cc1)N1CCC(CN2CCC(Oc3ccc(Cl)c(Cl)c3)CC2)CC1 | 0.22 | 0.114 | 2.98 | 0.224 |  |  |  | 72.4 (≈ 36.9 µg/mL) |  | 
CO[C@H]1CN(CCn2c(=O)ccc3ccc(C#N)cc32)CC[C@H]1NCc1cc2c(cn1)OCCO2 | 0.738 | 0.483 | 0.63 | 0.569 |  |  |  |  |  | 
Cc1cn([C@H]2CCCN([C@H](C)c3ccc(C(=O)O)c(Oc4cccc(Cl)c4)c3)C2)c(=O)[nH]c1=O | 0.0293 | 0.0156 | -0.3 | 0.101 |  | 3.39 |  |  |  | 
Cc1cn([C@H]2CCCN([C@@H](C)c3ccc(C(=O)O)c(Oc4cccc(Cl)c4)c3)C2)c(=O)[nH]c1=O | 0.0268 | 0.0229 | -0.26 | 0.0532 |  |  |  |  |  | 
Cc1cn([C@H]2CCCN([C@H](CC(C)C)c3ccc(C(=O)O)c(Oc4cccc(Cl)c4)c3)C2)c(=O)[nH]c1=O | 0.0175 | 0.0274 | 0.91 | 0.0366 |  | 9.12 |  |  |  | 
Cc1cn([C@H]2CCCN([C@H](CC(C)(C)C)c3ccc(C(=O)O)c(Oc4cccc(Br)c4)c3)C2)c(=O)[nH]c1=O | 0.0149 | 0.0287 | 1.09 | 0.0268 |  | 49 |  |  |  | 
CCNC(=O)Nc1nc2cc(-c3cccnc3)cc(-c3ncccc3F)c2[nH]1 | 0.028 | 0.0136 |  | 0.04 |  |  |  |  |  | 
C[C@H](CO)Nc1nc(SCc2ccco2)nc2[nH]c(=O)sc12 |  | 0.016 | 2.21 | 0.0274 | 8.28 | 61 |  |  |  | 
COc1ccc2c(C)cc(N[C@H]3CC[C@H](NCc4cn(C)c5ccc(C#N)cc45)C3)nc2c1 | 0.0146 | 0.0139 |  | 0.0209 |  |  |  |  |  | 
CCOc1cc2ncc(C(N)=O)c(Nc3ccc(C)cc3F)c2cc1N1CCN(C)CC1 | 0.151 |  |  | 0.183 | 26 | 12 |  |  |  | 
Cc1cc(Nc2nc(N[C@@H](C)c3ncc(F)cn3)c(C#N)nc2C)n[nH]1 | 0.349 | 0.304 | 1.92 | 0.454 |  |  |  |  |  | 

Structure (SMILES) | fraction unbound at 5 h (in vitro [1]) | fraction unbound at 5 h (in vitro [2]; PPB) | logD (physchem [3]; pH 7.4, LogD7.4) | fraction unbound at 5 h (in vitro [4]) | microsomal CLint (in vitro [5]; microsomes) [µL/min/mg] | hepatocyte CLint (in vitro [6]) [µL/min/1e6 cells] | microsomal CLint (in vitro [5]; liver microsomes) [µL/min/mg] | solubility thermodynamic (physchem [7]) [µM] | fraction unbound at 5 h (in vitro [2]) | logD (physchem [3]; pH 7.4)
Cc1cc(Nc2cnc(C#N)c(N[C@@H](C)c3ncc(F)cn3)n2)n[nH]1 | 0.376 | 0.186 | 1.96 | 0.398 |  |  |  |  |  | 
Cc1cc(Nc2cnc(C#N)c(N[C@@H](C)c3ccc(F)cn3)n2)n[nH]1 | 0.16 | 0.145 | 2.51 | 0.204 |  |  |  |  |  | 
CCCCNC(=O)c1ccc(Oc2ccc(CC(=O)O)cc2OC)c(NS(=O)(=O)c2ccc(Cl)cc2Cl)c1 | 0.0019 | 0.002 |  | 0.0171 | < 3 |  |  |  |  | 
C[C@H](NC(=O)[C@@H](Cc1c[nH]c2ccccc12)NC(=O)[C@@H](N)Cc1c[nH]cn1)C(=O)N[C@@H](Cc1c[nH]c2ccccc12)C(=O)N[C@H](Cc1ccccc1)C(=O)N[C@@H](CCCCN)C(N)=O (HELM PEPTIDE1{H.[dW].A.W.[dF].K.[am]}$$$$V2.0) | 0.262 |  |  | 0.183 |  |  | 61.7 |  |  | 
COC[C@H](O)Cn1c(=O)cnn(-c2ccc(Cl)c(C(=O)NCC3(O)CCCCCC3)c2)c1=O [CE-224535] | 0.477 | 0.415 | 1.46 | 0.552 |  |  |  |  |  | 
O=c1[nH]c2ccccc2n1CCCN1CCC(n2c(=O)[nH]c3cc(Cl)ccc32)CC1 [DOMPERIDONE] | 0.069 |  |  | 0.0872 |  |  |  |  | 0.0335 | 3.45
COc1cc2c(cc1OC)C(=O)C(CC1CCN(Cc3ccccc3)CC1)C2 (configuration not stated) [DONEPEZIL] | 0.339 | 0.105 |  | 0.613 |  |  |  |  |  | 
O=C(Cn1c(Cl)cnc(NCC(F)(F)c2ccccn2)c1=O)NCc1ncccc1F [DPOC-4088] | 0.208 | 0.28 |  | 0.392 |  |  |  |  |  | 
CCCn1c(=O)[nH]c(=O)c2[nH]cnc21 [ENPROFYLLINE] | 0.212 | 0.329 |  | 0.392 |  |  |  |  |  | 
CN(C)CCCN1c2ccccc2CCc2ccccc21 [IMIPRAMINE] | 0.173 |  |  | 0.0437 |  |  |  |  | 0.121 | 
C#CC[C@@H](C(=O)N[C@H](/C=C/C(=O)OCC)C[C@@H]1CCNC1=O)n1cccc(NC(=O)c2cc(C)on2)c1=O [IMOCITRELVIR] |  | 0.443 | 1.75 | 0.535 | 20.9 | > 150 |  |  |  | 
CC(C)Oc1ccc2c(=O)c(-c3ccccc3)coc2c1 [IPRIFLAVONE] | 0.0056 | 0.0053 | 4.07 | 0.0051 |  | 110 |  | 2.8 (≈ 0.785 µg/mL) |  | 
C[C@@H]1C[C@H]2[C@@H]3CCC4=CC(=O)C=C[C@]4(C)[C@@]3(Cl)[C@@H](O)C[C@]2(C)[C@@]1(OC(=O)c1ccco1)C(=O)CCl [MOMETASONE FUROATE] | 0.001 | 0.0023 |  | 0.003 |  |  |  |  |  | 
CC[C@@H](Nc1c(Nc2cccc(C(=O)N(C)C)c2O)c(=O)c1=O)c1ccc(C)o1 [NAVARIXIN ANHYDROUS] | 0.0106 | 0.0179 | 2.32 | 0.089 |  |  |  |  |  | 
COC(=O)C1=C(C)NC(C)=C(C(=O)OC)C1c1ccccc1[N+](=O)[O-] [NIFEDIPINE] | 0.0023 |  |  | 0.0736 |  |  |  |  | 0.0383 | 
COCCOC(=O)C1=C(C)NC(C)=C(C(=O)OC(C)C)C1c1cccc([N+](=O)[O-])c1 (configuration not stated) [NIMODIPINE] | 0.0175 | 0.0183 | 3.8 | 0.0116 |  |  |  | 3.1 (≈ 1.3 µg/mL) |  | 
CCOC(=O)C1=C(C)NC(C)=C(C(=O)OC)C1c1cccc([N+](=O)[O-])c1 (configuration not stated) [NITRENDIPINE] | 0.0077 | 0.009 |  | 0.0108 |  | 75 | 85 |  |  | 
O=C(O)CCn1c2c(c3ccccc31)C[C@H](NS(=O)(=O)c1ccc(F)cc1)CC2 [RAMATROBAN] | 0.0328 | 0.0274 |  | 0.0437 |  |  |  |  |  | 
O=C(Nc1ccccc1F)N[C@H]1N=C(c2ccccc2)c2ccccc2NC1=O [RSV-604] | 0.0274 |  |  | 0.0307 |  |  |  | 2.6 (≈ 1.01 µg/mL) | 0.0366 | 4
N#CC[C@H](C1CCCC1)n1cc(-c2ncnc3[nH]ccc23)cn1 [RUXOLITINIB] | 0.173 | 0.0532 | 2.55 | 0.166 |  |  |  |  |  | 
CC1=C(C)C(=O)C(C(CCCCCC(=O)O)c2ccccc2)=C(C)C1=O (configuration not stated) [SERATRODAST] |  |  | 2.48 | 0.02 | 3 | 85 |  |  |  | 
Cc1ccc(C(=O)c2ccc(CC(=O)O)n2C)cc1 [TOLMETIN] | 0.0287 | 0.0028 | -1.02 | 0.0477 | 4 | 7.33 |  |  |  | 
